Measurements: ChEMBL document CHEMBL1909046, “DrugMatrix in vitro pharmacology data”
Where a SMILES comes first, the peptide text is derived from it. Bridges are numbered along the chain shown (N, C = ends). [ ]: non-standard residue; d: D form. The star is where a group is joined. Threoninol(2S,3R) = C[C@@H](O)[C@H](CO)N*

Assays:
[1] = molecular target: T1, Muscarinic acetylcholine receptor M5 (Homo sapiens, UniProt P08912); type: cell membranes, CHO-K1, Membrane; conditions: cho-k1; also: in other assays of this panel Not Active means under 50% inhibition at 10 µM
T1 sequence (P08912 whole entry): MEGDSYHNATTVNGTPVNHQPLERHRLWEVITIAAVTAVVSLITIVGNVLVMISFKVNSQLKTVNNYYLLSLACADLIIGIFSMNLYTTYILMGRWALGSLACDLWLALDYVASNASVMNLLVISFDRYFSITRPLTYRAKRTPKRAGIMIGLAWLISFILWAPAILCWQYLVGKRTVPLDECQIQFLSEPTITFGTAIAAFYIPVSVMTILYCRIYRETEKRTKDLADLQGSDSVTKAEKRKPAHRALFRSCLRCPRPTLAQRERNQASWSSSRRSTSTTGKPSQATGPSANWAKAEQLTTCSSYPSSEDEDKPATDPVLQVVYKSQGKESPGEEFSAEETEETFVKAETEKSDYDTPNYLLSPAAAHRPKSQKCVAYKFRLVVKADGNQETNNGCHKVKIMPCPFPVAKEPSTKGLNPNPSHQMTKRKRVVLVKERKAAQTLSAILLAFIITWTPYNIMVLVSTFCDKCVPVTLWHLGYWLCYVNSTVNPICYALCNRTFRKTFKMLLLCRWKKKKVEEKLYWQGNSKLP

[2] = molecular target: Prostaglandin G/H synthase 1 (Homo sapiens, UniProt P23219); experiment: biochemical; type: tissue-based, Platelet; conditions: platelet;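 also: inhibition of COX-1 enzyme activity, with arachidonic acid supplied as substrate; in other assays of this panel Not Active means under 50% inhibition at 10 µM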
Sequence of Prostaglandin G/H synthase 1 (P23219 whole entry): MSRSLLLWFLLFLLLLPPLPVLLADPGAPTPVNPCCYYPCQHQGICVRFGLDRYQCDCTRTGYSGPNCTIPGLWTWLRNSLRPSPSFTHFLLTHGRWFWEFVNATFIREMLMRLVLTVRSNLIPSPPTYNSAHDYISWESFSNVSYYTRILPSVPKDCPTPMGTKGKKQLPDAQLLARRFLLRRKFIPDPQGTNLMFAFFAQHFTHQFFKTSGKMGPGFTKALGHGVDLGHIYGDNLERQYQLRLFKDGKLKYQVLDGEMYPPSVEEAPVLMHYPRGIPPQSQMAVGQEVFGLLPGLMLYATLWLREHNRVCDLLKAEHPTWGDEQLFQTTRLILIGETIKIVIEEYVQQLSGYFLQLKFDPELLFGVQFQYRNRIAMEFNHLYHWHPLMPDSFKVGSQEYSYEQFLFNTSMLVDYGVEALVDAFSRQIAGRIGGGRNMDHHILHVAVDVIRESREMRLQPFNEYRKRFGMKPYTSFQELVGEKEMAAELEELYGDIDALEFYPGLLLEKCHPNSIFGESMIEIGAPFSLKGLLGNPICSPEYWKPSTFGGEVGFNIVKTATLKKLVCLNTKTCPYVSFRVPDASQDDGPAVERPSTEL

[3] = molecular target: T2, 3-hydroxy-3-methylglutaryl-coenzyme A reductase (Homo sapiens, UniProt P04035); design: species or system Escherichia coli;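 also: enzyme inhibition assay of HMG-CoA reductase using radiolabeled [14C]HMG-CoA as substrate; in other assays of this panel Not Active means under 50% inhibition at 10 µM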
T2 sequence (P04035 whole entry): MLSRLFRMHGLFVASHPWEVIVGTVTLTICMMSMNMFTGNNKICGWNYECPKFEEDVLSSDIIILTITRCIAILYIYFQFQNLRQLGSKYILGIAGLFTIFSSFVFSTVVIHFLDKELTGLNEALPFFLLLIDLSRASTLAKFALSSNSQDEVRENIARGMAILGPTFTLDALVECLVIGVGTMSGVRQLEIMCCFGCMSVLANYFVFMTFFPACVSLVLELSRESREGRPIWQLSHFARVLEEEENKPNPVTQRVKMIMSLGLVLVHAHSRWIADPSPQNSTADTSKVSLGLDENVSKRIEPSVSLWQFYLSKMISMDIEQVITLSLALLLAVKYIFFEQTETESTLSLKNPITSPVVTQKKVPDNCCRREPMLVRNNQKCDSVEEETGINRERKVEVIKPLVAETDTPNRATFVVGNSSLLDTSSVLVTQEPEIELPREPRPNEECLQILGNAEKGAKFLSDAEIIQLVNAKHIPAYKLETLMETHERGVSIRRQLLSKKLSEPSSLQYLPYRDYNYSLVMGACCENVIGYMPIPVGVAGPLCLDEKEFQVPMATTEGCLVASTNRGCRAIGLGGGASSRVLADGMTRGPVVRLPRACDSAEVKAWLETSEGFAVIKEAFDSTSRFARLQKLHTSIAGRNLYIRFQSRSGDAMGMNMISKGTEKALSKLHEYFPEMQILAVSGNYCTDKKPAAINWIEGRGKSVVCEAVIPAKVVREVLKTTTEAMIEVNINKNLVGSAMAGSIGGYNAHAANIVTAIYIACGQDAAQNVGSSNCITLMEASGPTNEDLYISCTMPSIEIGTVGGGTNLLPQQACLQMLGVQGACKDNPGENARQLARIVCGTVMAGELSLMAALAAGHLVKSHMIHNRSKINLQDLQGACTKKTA

[4] = DRUGMATRIX: Phosphodiesterase PDE3 enzyme inhibition (substrate: [3H]cAMP + cAMP); type: tissue-based, Homo sapiens; conditions: platelet; Not Active = under 50% inhibition at 10 µM
[5] = molecular target: 5-hydroxytryptamine receptor 4 (Cavia porcellus, UniProt O70528); type: cell membranes, Dunkin-Hartley, Striatum, Membrane; also: in other assays of this panel Not Active means under 50% inhibition at 10 µM
Sequence of 5-hydroxytryptamine receptor 4 (O70528 whole entry): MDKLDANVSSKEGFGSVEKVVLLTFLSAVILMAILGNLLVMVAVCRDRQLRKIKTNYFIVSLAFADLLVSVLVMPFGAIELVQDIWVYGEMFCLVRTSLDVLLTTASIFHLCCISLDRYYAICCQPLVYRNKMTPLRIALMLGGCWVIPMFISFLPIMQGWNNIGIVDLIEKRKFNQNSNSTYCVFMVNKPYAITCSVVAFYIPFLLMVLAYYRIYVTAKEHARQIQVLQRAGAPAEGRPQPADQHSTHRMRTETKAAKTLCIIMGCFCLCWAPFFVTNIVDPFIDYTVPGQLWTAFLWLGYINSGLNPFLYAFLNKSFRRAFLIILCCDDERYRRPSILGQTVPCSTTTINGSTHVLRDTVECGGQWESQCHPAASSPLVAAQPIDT

Leukotriene C4 synthase = molecular target: T3, Leukotriene C4 synthase (Cavia porcellus, UniProt A6XA80); type: tissue-based, Lung
T3 sequence (A6XA80 whole entry): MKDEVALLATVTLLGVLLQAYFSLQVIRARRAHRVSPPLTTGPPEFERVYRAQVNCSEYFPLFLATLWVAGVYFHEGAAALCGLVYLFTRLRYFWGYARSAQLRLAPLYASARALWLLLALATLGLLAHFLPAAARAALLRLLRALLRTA

Estrogen receptor beta = Estrogen receptor beta (Homo sapiens, UniProt Q92731); conditions: sf9; also: in other assays of this panel Not Active means under 50% inhibition at 10 µM
Sequence of Estrogen receptor beta (Q92731 whole entry): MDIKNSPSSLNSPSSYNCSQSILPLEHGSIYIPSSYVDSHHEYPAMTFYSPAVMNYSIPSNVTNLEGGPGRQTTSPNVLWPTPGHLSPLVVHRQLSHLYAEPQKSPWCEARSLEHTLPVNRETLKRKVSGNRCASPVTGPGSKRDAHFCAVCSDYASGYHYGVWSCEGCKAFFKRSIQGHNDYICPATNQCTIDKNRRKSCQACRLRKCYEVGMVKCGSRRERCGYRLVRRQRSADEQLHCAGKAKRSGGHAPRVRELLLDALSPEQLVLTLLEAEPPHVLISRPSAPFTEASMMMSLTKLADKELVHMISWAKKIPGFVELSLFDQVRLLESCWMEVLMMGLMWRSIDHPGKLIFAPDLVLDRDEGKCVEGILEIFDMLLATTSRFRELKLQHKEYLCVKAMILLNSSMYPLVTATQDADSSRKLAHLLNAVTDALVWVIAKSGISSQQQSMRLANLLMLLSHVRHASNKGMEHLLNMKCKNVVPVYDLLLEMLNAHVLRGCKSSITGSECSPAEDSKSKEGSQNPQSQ

C=C1CC[C@H](O)C/C1=C/C=C1\CCC[C@]2(C)[C@@H]([C@H](C)CCCC(C)C)CC[C@@H]12 [CHOLECALCIFEROL]
Not Active: IC50 [1] | IC50 [2] | IC50 [3] | IC50 [4] | Ki [4] | IC50 [5] | IC50 (Leukotriene C4 synthase) | IC50 (Estrogen receptor beta)

COc1cc2c(c3oc(=O)c4c(c13)CCC4=O)[C@@H]1C=CO[C@@H]1O2 [AFLATOXIN]
Not Active: IC50 [1] | Ki [1] | IC50 [2] | Ki [2] | IC50 [3] | Ki [3] | IC50 [4] | Ki [4] | IC50 [5] | Ki [5] | IC50 (Leukotriene C4 synthase) | Ki (Leukotriene C4 synthase) | IC50 (Estrogen receptor beta) | Ki (Estrogen receptor beta)

C[C@@H](O)[C@H](CO)NC(=O)[C@@H]1CSSC[C@H](NC(=O)[C@H](N)Cc2ccccc2)C(=O)N[C@@H](Cc2ccccc2)C(=O)N[C@H](Cc2c[nH]c3ccccc23)C(=O)N[C@@H](CCCCN)C(=O)N[C@@H]([C@@H](C)O)C(=O)N1 (H-[dF]CF[dW]KTC-{Threoninol(2S,3R)}; disulfide 2-7)
Not Active: IC50 [1] | IC50 [2] | IC50 [3] | IC50 [4] | Ki [4] | IC50 [5] | IC50 (Leukotriene C4 synthase) | IC50 (Estrogen receptor beta)

COc1ccc2[nH]c([S+]([O-])Cc3ncc(C)c(OC)c3C)nc2c1 (stereo not drawn) [OMEPRAZOLE]
Not Active: IC50 [1] | IC50 [2] | IC50 [3] | IC50 [4] | Ki [4] | IC50 [5] | IC50 (Leukotriene C4 synthase) | IC50 (Estrogen receptor beta)
